Source: patent publication US7888357B2, “Anti-inflammatory and protein kinase inhibitor compositions and related methods for downregulation of detrimental cellular responses and inhibition of cell death” (Northwestern University, priority 2001, dated 2011)

Experiments:
rats = experiment: Organ histology after high dose injections; type: in vivo, rat; conditions: after high dose injections into rats (data not shown)
BV-2 cells = experiment: Western blot of transcription factor and kinase phosphorylation in LPS-treated BV-2 cells; type: cell-based, murine; conditions: compound 10 μM
Procedure: (§1) FIG. 2. Selective effects of compound 1 (MW01-070C) on glial activation responses and gene-regulating protein kinase pathways. BV-2 cells and rat astrocytes were treated with control buffer (C) or stimulated with LPS or Aβ1-42 peptide in the presence or absence of compound 1, and cell lysates were analyzed by Western blots. (A) Astrocytes treated with LPS and compound 1 show concentration-dependent inhibition of iNOS and IL-1β production but not GFAP. (B) Astrocytes treated with A β1-42 and compound 1 (10 μM) show inhibition of iNOS and IL-1β but not apoE and COX-2. (C) BV-2 cells treated with LPS and compound 1 (10 μM) show inhibition of phosphorylated (p-) CREB but not p-p38 and p-ATF2, as assayed with antibodies that are specific for the phosphorylated forms of the proteins. Data are expressed as percent control (mean±SD; n=3 determinations).
FIG. 7. Effects of MW01-070C on phosphorylation of transcription factors and an upstream activating kinase. BV-2 cells were incubated for 4 hr with control buffer (lane 1), 500 ng/ml LPS (lane 2), or […] LPS+10 μM MW01-070C (lane 3). The levels of phosphorylated (p-) ATF2, p38, and CREB were determined by Western blot of cell lysates, using antibodies that are specific for the phosphorylated forms of these proteins.
For analysis of transcription factor phosphorylation, BV-2 cells were plated at 2×10^5 cells/well in a 12-well tissue culture plate, and grown for 48 hrs in αMEM containing 10% FBS. Immediately before treatment, media was removed, cells were rinsed with PBS, and media changed to serum-free αMEM. Cells were then treated for 4 hrs with control buffer or LPS (500 ng/ml) in the presence or absence of MW01-070C (10 μM), and cell lysates harvested for Western blot analysis.
Cell lysates were prepared and Western blots were done as previously described [Petrova, T. V., Akama, K. T., and Van Eldik, L. J. (1999) Proc Natl Acad Sci USA 96, 4668-4673] using equal volumes of cell extracts per gel lane. The following antibodies were used: monoclonal anti-iNOS (1:1000 dilution, Transduction Labs); polyclonal anti-rat IL-1β (1:1000 dilution, R&D Systems, Inc.); monoclonal anti-glial fibrillary acidic protein (GFAP) (1:[…] dilution, Sigma); polyclonal anti-rat apoE (1:15,000 dilution) prepared as described [LaDu, M. J., Shah, J. A., Reardon, K., Getz, G. S., Bu, G., Hu, J., Guo, L., and Van Eldik, L. J. (2000) J. Biol. Chem. 275, 33974-33980]; polyclonal anti-COX-2 (1:500 dilution) and monoclonal anti-phosphoATF2 (1:1000 dilution) from Santa Cruz Biotechnology; polyclonal anti-phosphoCREB (1:1000 dilution), polyclonal anti-phosphop38 MAPK (1:1000 dilution), polyclonal anti-phosphop90RSK (1:1000 dilution), and monoclonal anti-phosphoERK1/2 (1:1000 dilution) from Cell Signaling.

rat astrocytes = experiment: Western blot of glial activation responses in rat astrocyte cultures; type: cell-based; conditions: for GFAP levels: activated rat astrocytes
Procedure: as §1
The rationale for using BV-2 cells in high throughput screening was the paucity of well-characterized human microglial cell lines, and the relevant activation responses and signaling pathways reflect those seen in human and rodent primary microglial cultures. Compounds were tested for their effects on NO accumulation in conditioned media of LPS-stimulated BV-2 cells by measurement of nitrite production by the Griess assay as a read-out for iNOS activity, as described previously. Stock solutions of compounds were prepared in dimethylsulfoxide (DMSO) or in water. When stock solutions were prepared in DMSO, control wells contained the same final concentration of DMSO as the compound-containing wells. […] Solutions of compounds for cell treatments were diluted to a 10× final concentration by dilution of stock solutions in αMEM media. The commercially available drugs tested were: compound 5 (KN93 from Alexis); compound 6 (pyrrolidinedithiocarbamate or PDTC from Sigma), compound 7 (SB203580 from Alexis Corporation), compound 8 (PD98059 from Alexis Corporation), and compound 9 (UO126 from Cell Signaling). SB203580, U0126 and PD98059, PDTC, and KN93 are used as pathway-selective inhibitors of p38 MAPK, MEK1/2, NFκB, and CaMKII signaling pathways. Respectively, Western blots of cell lysates were done with the following antibodies: monoclonal anti-iNOS (1:1000 dilution, Transduction Labs); polyclonal anti-rat IL-1β (1:1000 dilution, R&D Systems, Inc.); monoclonal anti-glial fibrillary acidic protein (GFAP) (1:[…] dilution, Sigma); polyclonal anti-rat alioE (1:15,000 dilution) prepared as described; polyclonal anti-COX-2 (1:500 dilution) and monoclonal anti-phosphoATF2 (1:1000 dilution) from Santa Cruz Biotechnology, polyclonal anti-phosphoCREB (1:1000 dilution), and polyclonal anti-phosphop38 MAPK (1:1000 dilution). Reconstituted enzyme assays were done as described s. The sources of protein kinases were: bovine heart PKA from Promega, rat brain PKC from Calbiochem, rat CaMKII from New England Biolabs, chicken gizzard MLCK prepared as described, and a p38 MAP kinase kit containing recombinant Xenopus p38-MAPK and its human substrate from Upstate Biotechnology. The catalytic domains of these protein kinases retain a high level of amino acid sequence identity across mammalian species, consistent with the lack of documented major differences across species for the in vitro catalytic activity of a given kinase.
FIG. 5. Effects of two compounds on LPS-stimulated INOS and IL-1β production in rat astrocyte cultures. Astrocyte cultures were incubated for 24 hr with control buffer (C), LPS (100 ng/ml) alone, or LPS in the presence of increasing concentrations (0.1, 0.3, 1, 3, 10 μM) of MW01-070C (panel A) or MW01-196A (panel B). The levels of iNOS, proIL-1β, and GFAP were determined by Western blot of cell lysates.
FIG. 6. Effects of MW01-070C on astrocytes treated with various activating stimuli, and analysis of multiple activation responses. Astrocyte cultures were stimulated for 12 hr with Aβ (10 μM), S100B (0.5 μM), or LPS (100 ng/ml) in the absence (−) or presence (+) of MW01-070C (10 μM). […]

[1] = LPS-stimulated rat astrocytes, 24 hr, Western blot
[2] = LPS-stimulated rat astrocytes, 24 hr, Western blot, listed as 1
[3] = activated astrocytes, compound 10 μM
[4] = astrocytes stimulated by S100 (0.5 μM), 12 hr, compound 10 μM
[5] = glia stimulated by Aβ1-42, compound 10 μM

For `N=c1cc2c(nn1CCCCCCCCCCC(=O)N1CCN(c3ncccn3)CC1)-c1ccccc1CC2` [MW01-070C], the “liver, kidney or brain damage based on histology” value (rats) was “no major liver, kidney or brain damage”, the “phosphorylated ATF2” value (BV-2 cells) was “does not inhibit” and the “phosphorylated p38 MAPK” value (BV-2 cells) was “not blocked”. The “phosphorylation of CREB” value (BV-2 cells) was “inhibited”, the “phosphorylated p38 MAPK” value (BV-2 cells; listed as 1) was “does not inhibit” and the “phosphorylation of CREB” value (BV-2 cells; listed as 1) was “inhibits”. For the same molecule, the IL-1β production (rat astrocytes; [1]) was “dose dependent inhibition”, the iNOS production (rat astrocytes; [1]) was “dose dependent inhibition” and the IL-1β production (rat astrocytes; [2]) was “inhibits”. The iNOS production (rat astrocytes; [2]) was “inhibits”, the COX-2 levels (rat astrocytes; [3]) was “no effect” and the apoE production (rat astrocytes; [3]) was “no effect”. The GFAP levels (rat astrocytes; Western blot) was “no change”, the GFAP levels (rat astrocytes; Western blot, listed as 1) was “not changed” and the IL-1β production (rat astrocytes; [4]) was “inhibits”. The iNOS production (rat astrocytes; [4]) was “inhibits”, the IL-1β production (rat astrocytes; [5]) was “inhibits” and the iNOS production (rat astrocytes; [5]) was “inhibits”.
